From patent US20250276942A1, “UREASE INHIBITOR FORMULATION FOR USE IN UREA GRANULATION PROCESS” (BASF SE, priority 2021, published 2025)

How the values were obtained:
[1] = NxPT recovery on closed storage of urea treated in the melt with urease inhibitor formulations in different solvents (Example 2); format: physicochemical; details: 550 ppm NxPT added to urea melt; closed storage at 30° C. and 40° C.; 2 and 6 months; HPLC DIN_EN_16651
Experimental: 900 g urea+20 mL water were added to a metal pan and heated to 135° C.+1−5° C. under continuous stirring using an overhead stirrer. When all urea was melted, the respective amount of urease inhibitor formulation was added to the urea melt to achieve an NxPT (i.e. NBPT and NPPT) concentration of 550 ppm in urea. After 1 minute of mixing, the molten urea was poured onto an aluminum tray and let cool down at room temperature for 30 min. Afterwards, the urea was broken up in pieces of 1-6 mm and stored in closed polyethylene bottles at 30° C. and 40° C. After 2 and 6 months samples were taken and analyzed for active ingredient concentration. […] The resulting NxPT concentrations from both measurements were averaged.

Flashpoint of materials = format: physicochemical
Experimental: In a preferred embodiment A2 of the first aspect, the solvent (B) has a flashpoint (determined according to ISO 2719:2016) of more than 130° C., preferably more than 135° C., and in particular more than 140° C.

[2] = granulated urea, 0.055 wt.-% NBPT+NPPT; closed storage 20° C., 30° C., 40° C., up to 12 months; compared to samples containing PEI
Experimental: In a test plant, urea was granulated in a fluidized bed granulator having a cylindrical fluidized bed of diameter 40 cm at a temperature of about 108° C. […] The fluidization air flowed at a superficial flow rate of about 2 m/s into the fluidized bed. An overflow was mounted 10 cm above the baseplate at the side wall of the bed. A defined amount (about 30 kg) of urea particles or urea granules having a narrow size distribution was then introduced into the granulator column as seeds for the granulation. The bed with the seeds (about 50 cm deep) was fluidized with hot air at a temperature of about 100° C., and the addition of 96 to 97% by weight urea solution at a temperature of about 135° C. was commenced as soon as the bed had reached the temperature of about 108° C. that was envisaged for the run. From a reservoir tank, the urea solution having a water content of 3-4% by weight was then introduced into the fluidized bed granulator at a rate of 300 kg/h via a spray nozzle that was operated at a temperature of about 140° C. with air, supplied at a rate of 240 kg/h. […]
Samples of the resulting urea granules were stored in closed polyethylene bottles at 20° C., 30° C. and 40° C. Samples were taken after 0, 1, 2, 3, 4, 6, and 12 months and analyzed for active ingredient concentration. From each sample 2×15 g was dissolved in 100 mL water and analyzed using HPLC method DIN_EN_16651. […]

[3] = NxPT recovery on closed storage at 30° C. of urea coated with amine-containing formulations (Example 5); format: physicochemical
Experimental: 3 kg of urea fertilizer granules were added to an ERWEKA mixer (dimensions mix drum: 50 cm diameter, 20 cm high). The mixer was turned on (27 RPM) and the respective amount of urease inhibitor formulation (formulations of NBPT and NPPT in DEG with additional amine were prepared as shown in Table 3 below) was sprayed onto the urea using a syringe to achieve a total NxPT concentration of 550 ppm (137.5 ppm NPPT and 412.5 ppm NBPT) on urea. The fertilizer/urease inhibitor mixture was mixed for 5 minutes. Afterwards, the treated urea was stored in closed polyethylene bottles at 30° C. Samples were taken after 1, 2, 3 and 6 months and analyzed for active ingredient concentration. […] The resulting NxPT concentrations from both measurements were averaged.

Flashpoint (Flashpoint of materials) [°C]	Structure (SMILES)	other results
103	CC(O)C(=O)N(C)C (stereo not shown) [Agnique AMD 3L, N,N-Dimethyl lactamide]	–
95	C[S+](C)[O-] [DMSO, Dimehtyl sulfoxide]	ranking of the stabilizing properties of the tested solvents [1]: DEG>DPG>PG>N,N-Agnique AMD 3L>DMSO
99	CC(O)CO (stereo not shown) [PG, Propylene glycol]	–
191	CC(O)CN(CCO)CCO (stereo not shown) [DEIPA, Diethanol isopropanol amine]	storage stability in urea [2]: higher storage stability; performance in urease inhibitor formulations applied as coating to urea ([3]; 550 ppm NxPT sprayed onto urea granules, closed storage 30° C., 1, 2, 3 and 6 months): same performance; stabilizing effect ([3]; amine in DEG formulation of NBPT and NPPT on urea): stabilizing effect

Structure (SMILES)	Flashpoint (Flashpoint of materials) [°C]	other results
OCCOCCO [DEG, Diethylene glycol]	142	stabilizing properties on NxPT during storage of the treated urea, among the tested glycols [1]: best stabilizing properties
